Data set [1] deals with patients with moderate to severe COPD. Briefly: Clinical study of nebulized ensifentrine versus placebo in COPD: average FEV1 AUC0-12h at week 12. It is filed as in vivo, human. The procedure: A clinical study was conducted to determine the efficacy of ensifentrine in treating COPD compared with placebo. Ensifentrine was administered by nebulizer at a dose of 3 mg twice daily (BID) for 24 weeks. The study was a multicenter, randomized, double-blind, parallel group, placebo-controlled trial with around 800 patients and 5:3 randomization.
The study population included patients aged 40-80 years with moderate to severe COPD (FEV1 30%-70% p.n., FEV1/forced vital capacity (FVC) ratio<0.7, with mMRC≥2). The randomization stratified (a) the use of stable background maintenance LAMA or LABA therapy use (approx. 50% yes or no) and (b) cigarette smoking (current or former). Inhaled corticosteroid (ICS) maintenance therapy was permitted in up to 20% of patients under certain provisions.
The primary endpoint of the study was change from baseline in average FEV1 area under the curve (AUC0-12h) […] at week 12; morning trough FEV1 at week 12; and other endpoints including moderate/severe COPD exacerbations frequency over 24 weeks.
Baseline FEV1 is the mean of the two measurements taken before study medication on the day of first dosing, i.e., ≤40 minutes and just prior to dosing, both pre-dose on day 1. Average FEV1 AUC0-12h is defined as area under the curve over 12 h of the FEV1, divided by 12 h.
The investigational product and placebo were provided in 2.5 mL unit dose format in an ampule and administered via a nebulizer. The formulation of the investigational product (ensifentrine suspension formulation comprising crystalline polymorph Form I of ensifentrine) and placebo are shown in Table 2.

A short description of data set [2]: Dose normalized steady-state AUCtau in non-COPD subjects with and without hepatic impairment. As to conditions: for AUC: human, plasma, inhaled, 3 mg, dose normalized to 3 mg, FIG. 3. It counts as in vivo, human. The procedure:
The dose normalized steady-state AUCtau for a 3 mg dose in non-COPD subjects with and without hepatic impairment is shown in FIG. 3. As described in FIG. 3 the AUCtau,ss of healthy subjects was from about 5000 pg/mL*h to about 9000 pg/mL*h. The AUCtau,ss of subjects with moderate hepatic impairment was about 4000 pg/mL*h to about 11000 pg/mL*h. The AUCtau,ss of subjects with severe hepatic impairment was about 5500 pg/mL*h to about 6500 pg/mL*h. […] The highest dose normalized AUCtau,ss observed in this subset was for a subject with moderate hepatic impairment, but this was not the highest exposure in the overall dataset as it was exceeded by two other subjects with COPD.

The nature of data set [3]: popPK model simulation of ensifentrine PK by renal function (virtual population of COPD subjects). As to conditions: nebulization of 3 mg, simulated. Details: species or system human. The procedure:
Plasma concentrations of ensifentrine for the assessment of pharmacokinetic (PK) parameters were measured using validated bioanalytical methods for ensifentrine in human plasma with LLOQ of 5 pg/mL. Samples were taken on the following schedule: • Week 6: 1.0 h (±0.5 h) and 2.5 h (±0.5 h) (even sites) or 1.5 h and 4 h (±1 h) (odd sites); • Week 12: pre-dose (−0.5 h), 4 to 6 h, and 8 to 12 h (even sites) or 0.5 h (±0.25 h), 3 h (±0.5 h), and 6 to 8 h (odd sites); • Week 24: pre-dose (−0.5 h) and 1.5 h (even sites) or pre-dose (−0.5 h) and 1 h (±0.5 h) (odd sites)
Based on the samples taken during the trial, PK data was modelled for COPD patients with varying levels of renal function:
A two-compartment model with first-order input and first-order elimination from the central compartment was fit to the plasma concentration-time data of ensifentrine using NONMEM® version 7.4.4. Different absorption functions and compartmental structures were explored. […]
The final model was evaluated using goodness of fit plots, bootstrap analysis, and visual predictive checks (VPCs). […]
Subjects with normal renal function to mild renal impairment are defined as those individuals with an absolute estimated glomerular filtration rate (aEGFR) of greater than or equal to 60 mL/min. […] Individual subject concentrations were simulated using NONMEM version 7.4.3, and PK parameters were calculated using R version 3.4.0. […]

Each structure is given as a SMILES string.

The values below come from patent US20250249007A1, “PHARMACEUTICAL COMPOSITIONS OF ENSIFENTRINE FOR CHRONIC OBSTRUCTIVE PULMONARY DISEASE” (Verona Pharma PLC, priority 2024, published 2025).

The term AUC denotes the area under the concentration-time curve, a measure of exposure. A higher AUC goes with high exposure.

As for `COc1cc2c(cc1OC)-c1c/c(=N\c3c(C)cc(C)cc3C)n(CCNC(N)=O)c(=O)n1CC2` [Ensifentrine, N-(2-{(2E)-9,10-dimethoxy-4-oxo-2-[(2,4,6-trimethylphenyl)imino]-6,7-dihydro-2H-pyrimido[6,1-a]isoquinolin-3(4H)-yl}ethyl)urea], the “Average FEV1 (AUC)0-12 h post-dose at Week 12: Change from Baseline, CFB Least Squares Mean (95% CI)” value in data set [1] (3 mg BID by nebulizer, week 12, n = 498) was 48.2 (30.0, 66.5) mL. Also, in data set [1] (3 mg BID by nebulizer, week 12, versus placebo), the “Average FEV1 (AUC)0-12 h post-dose at Week 12: Placebo-corrected CFB LS Mean Diff. (95% CI)” value is reported as 93.9 (64.5, 123.3) mL. Further, the “Improvement in lung function” value in data set [1] (individuals with normal renal function to mild renal impairment and subjects with moderate renal impairment) is reported as “statistically significant improvement in lung function”. The AUC in data set [2] (healthy subjects) is 5 to 9 ng·h/mL; in data set [2] (subjects with moderate hepatic impairment (n=10)), 4 to 11 ng·h/mL; in data set [2] (subjects with severe hepatic impairment (n=2)), 5.5 to 6.5 ng·h/mL. The “Exposure (AUC) in hepatic impairment versus healthy subjects” value in data set [2] (moderate (n=10) or severe (n=2) hepatic impairment) is “comparable to healthy subjects”. In addition, the “AUC ratio aEGFR < 60 mL/min: ≥60 mL/min” value in data set [3] is 1.30. The “Cmax ratio aEGFR < 60 mL/min: ≥60 mL/min” value in data set [3] was 1.16.
